Laboratory results as given in US8153809B2, “Dihydropyridone ureas as P2X7 modulators” (Roche Palo Alto LLC, priority 2008, dated 2012).

Biological target: T1, P2X7 (UniProt Q99572)
T1 sequence (Q99572 1-595): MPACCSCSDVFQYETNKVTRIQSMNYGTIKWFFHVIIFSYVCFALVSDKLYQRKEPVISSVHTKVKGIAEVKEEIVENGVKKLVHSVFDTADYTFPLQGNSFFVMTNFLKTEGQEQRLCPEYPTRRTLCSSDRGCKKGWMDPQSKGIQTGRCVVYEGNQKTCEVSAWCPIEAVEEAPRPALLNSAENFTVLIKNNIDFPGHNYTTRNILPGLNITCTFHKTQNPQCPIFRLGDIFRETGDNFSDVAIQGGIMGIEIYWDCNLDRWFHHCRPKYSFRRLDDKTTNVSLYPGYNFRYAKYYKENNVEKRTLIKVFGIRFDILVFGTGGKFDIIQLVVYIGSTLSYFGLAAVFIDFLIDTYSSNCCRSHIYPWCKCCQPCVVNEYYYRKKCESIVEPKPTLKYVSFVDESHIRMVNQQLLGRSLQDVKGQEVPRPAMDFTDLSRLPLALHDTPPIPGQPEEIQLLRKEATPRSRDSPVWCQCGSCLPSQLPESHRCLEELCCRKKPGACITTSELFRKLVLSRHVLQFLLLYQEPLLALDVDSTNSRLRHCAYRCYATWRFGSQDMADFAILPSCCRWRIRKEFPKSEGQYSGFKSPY
Assay: pIC50 values for P2X7 (Table 1)
Format: cell-based
Description: Intracellular Calcium Flux (FLIPR) Assay
Compound and Reagent Preparation
Stock solutions of compounds were prepared from powders as a 10 mM DMSO stock solution. These solutions were stored at RT during the two week period of these experiments to prevent freeze-thaw of the DMSO stocks. The DMSO stocks were added to the appropriate assay buffer at a concentration of 10 μM, and then diluted serially to the final concentrations that were tested. […] The aqueous solutions of compounds as well as ATP (Sigma A7699) and BzATP (Sigma B6396) were prepared fresh for each day of experiment.
1321N1 cells stably expressing the full length human P2X7 gene (1321N1-hP2X7) and HEK293 cells stably expressing the full length rat P2X7 gene (HEK293-rP2X7) were obtained from the Roche Cell Culture Facility. 1321N1-hP2X7 cells were grown in Dulbecco's Modified Eagle's Medium (DMEM) high glucose supplemented with 10% FBS and 250 μg/mL G418. HEK293-rP2X7 cells were grown in DMEM/F-12 supplemented with 10% FBS, 1 mM CaCl2, 2 mM MgCl2, 2 mM L-Glutamine and 500 μg/ml G418. Cells were split such that they never became >70% confluent.
Intracellular Calcium Flux (FLIPR)
On the day prior to the experiment, 1321N1-hP2X7 or HEK293-rP2X7 cells were released into suspension with calcium-free PBS+Versene and washed by centrifugation with calcium-free PBS to remove the Versene.
On the day of the experiment, plates were washed with FLIPR buffer (calcium- and magnesium-free Hank's Balanced Salt Solution (HBSS) supplemented with 10 mM Hepes, 2.5 mM probenecid and 2 mM calcium chloride) using a BIO-TEK 96 channel plate washer and incubated with […] fluo-3 dye at 37° C. for one hr. The dye was then removed by plate washing and the cells were allowed to equilibrate for 20 min at room temperature with antagonist or vehicle (FLIPR buffer). Agonist (100 μM BzATP final concentration for hP2X7; 5 μM BzATP final concentration or rP2X7) was added online with the FLIPR and fluorescence measurements made at 1 sec intervals for 60 sec followed by 3 sec intervals for a further 4 min (5 min total). A final addition of 5 μM ionomycin was made and the maximal BzATP-evoked fluorescence normalized to the maximal ionomycin-evoked fluorescence.

| Structure (SMILES) | pIC50 |
| --- | --- |
| Cc1cc(F)c(OCCO)cc1NC(=O)N1C=CC(=O)C[C@H]1c1ccc(F)cc1 [Compound 111, (S)-2-(4-Fluoro-phenyl)-4-oxo-3,4-dihydro-2H-pyridine-1-carboxylic acid [4-fluoro-5-(2-hydroxy-ethoxy)-2-methyl-phenyl]-amide] | 8.12 |
| O=C1C=CN(C(=O)Nc2cc(OCCO)c(Cl)cc2Br)[C@H](c2ccc(F)cc2)C1 [Compound 40, (S)-2-(4-Fluoro-phenyl)-4-oxo-3,4-dihydro-2H-pyridine-1-carboxylic acid [2-bromo-4-chloro-5-(2-hydroxy-ethoxy)-phenyl]-amide] | 7.607 |
| Cc1cc2cccnc2cc1NC(=O)N1C=CC(=O)C[C@H]1c1ccc(F)cc1 [Compound 102, (S)-2-(4-Fluoro-phenyl)-4-oxo-3,4-dihydro-2H-pyridine-1-carboxylic acid (6-methyl-quinolin-7-yl)-amide] | 6.56 |
| Cc1cc(Cl)c(OC2CCNCC2)cc1NC(=O)N1C=CC(=O)C[C@H]1c1ccc(F)cc1 [Compound 142, (S)-2-(4-Fluoro-phenyl)-4-oxo-3,4-dihydro-2H-pyridine-1-carboxylic acid [4-chloro-2-methyl-5-(piperidin-4-yloxy)-phenyl]-amide] | 6.71 |
| CSc1cc(NC(=O)N2C=CC(=O)C[C@H]2c2ccc(F)cc2)c(Br)cc1Cl [Compound 14, (S)-2-(4-Fluoro-phenyl)-4-oxo-3,4-dihydro-2H-pyridine-1-carboxylic acid (2-bromo-4-chloro-5-methylsulfanyl-phenyl)-amide] | 6.726 |
| CNC(=O)COc1cc(NC(=O)N2C=CC(=O)C[C@H]2c2ccc(F)cc2)c(Br)cc1Cl [Compound 25, (S)-2-(4-Fluoro-phenyl)-4-oxo-3,4-dihydro-2H-pyridine-1-carboxylic acid (2-bromo-4-chloro-5-methylcarbamoylmethoxy-phenyl)-amide] | 6.785 |
| COC(=O)c1cccc(NC(=O)N2C=CC(=O)C[C@H]2c2ccc(F)cc2)c1C [Compound 93, 3-{[(S)-2-(4-Fluoro-phenyl)-4-oxo-3,4-dihydro-2H-pyridine-1-carbonyl]-amino}-2-methyl-benzoic acid methyl ester] | 7.44 |
| COc1ccc(NC(=O)N2C=CC(=O)CC2c2ccc(F)cc2)c(OC)c1 (stereo not shown) [Compound 69, 2-(4-Fluoro-phenyl)-4-oxo-3,4-dihydro-2H-pyridine-1-carboxylic acid (2,4-dimethoxy-phenyl)-amide] | 6.07 |
| COCCOc1cc(NC(=O)N2C=CC(=O)C[C@H]2c2ccc(F)cc2)c(Br)cc1Cl [Compound 33, (S)-2-(4-Fluoro-phenyl)-4-oxo-3,4-dihydro-2H-pyridine-1-carboxylic acid [2-bromo-4-chloro-5-(2-methoxy-ethoxy)-phenyl]-amide] | 7.27 |
| Cc1cc(F)c(NC(=O)N2C=CC(=O)C[C@H]2c2cccc(F)c2)cc1OCCO [Compound 58, (S)-2-(3-Fluoro-phenyl)-4-oxo-3,4-dihydro-2H-pyridine-1-carboxylic acid [2-fluoro-5-(2-hydroxy-ethoxy)-4-methyl-phenyl]-amide] | 6.43 |

Results, then the compound that gave them:

| pIC50 | Structure (SMILES) |
| --- | --- |
| 6.945 | Cc1cc(Cl)c(CN2CCOCC2)cc1NC(=O)N1C=CC(=O)C[C@H]1c1ccc(F)cc1 [Compound 129, (S)-2-(4-Fluoro-phenyl)-4-oxo-3,4-dihydro-2H-pyridine-1-carboxylic acid (4-chloro-2-methyl-5-morpholin-4-ylmethyl-phenyl)-amide] |
| 6.89 | COc1cccc(NC(=O)N2C=CC(=O)CC2c2ccc(F)cc2)c1OC (stereo not shown) [Compound 110, 2-(4-Fluoro-phenyl)-4-oxo-3,4-dihydro-2H-pyridine-1-carboxylic acid (2,3-dimethoxy-phenyl)-amide] |
| 7.415 | Cc1ccc(NC(=O)N2C=CC(=O)C[C@H]2c2ccc(F)cc2)c(C)c1 [Compound 103, (S)-2-(4-Fluoro-phenyl)-4-oxo-3,4-dihydro-2H-pyridine-1-carboxylic acid (2,4-dimethyl-phenyl)-amide] |
| 6.043 | Cc1cc(NC(=O)N2C=CC(=O)CC2c2ccc(F)cc2)n(C)n1 (stereo not shown) [Compound 108, 2-(4-Fluoro-phenyl)-4-oxo-3,4-dihydro-2H-pyridine-1-carboxylic acid (2,5-dimethyl-2H-pyrazol-3-yl)-amide] |
| 5.915 | COc1cc(NC(=O)N2C=CC(=O)CC2c2ccc(F)cc2)c(N(C)C)cc1OC (stereo not shown) [Compound 115, 2-(4-Fluoro-phenyl)-4-oxo-3,4-dihydro-2H-pyridine-1-carboxylic acid (2-dimethylamino-4,5-dimethoxy-phenyl)-amide] |
| 7.615 | Cc1cc(Cl)c(CN(CCO)CCO)cc1NC(=O)N1C=CC(=O)C[C@H]1c1ccc(F)cc1 [Compound 127, (S)-2-(4-Fluoro-phenyl)-4-oxo-3,4-dihydro-2H-pyridine-1-carboxylic acid (5-{[bis(2-hydroxy-ethyl)-amino]-methyl}-4-chloro-2-methyl-phenyl)-amide] |
| 7.065 | Cn1ccc2ccc(NC(=O)N3C=CC(=O)CC3c3ccc(F)cc3)cc21 (stereo not shown) [Compound 52, 2-(4-Fluoro-phenyl)-4-oxo-3,4-dihydro-2H-pyridine-1-carboxylic acid (1-methyl-1H-indol-6-yl)-amide] |
| 7.74 | Cc1cccc(NC(=O)N2C=CC(=O)C[C@H]2c2ccc(F)cc2)c1C [Compound 97, (S)-2-(4-Fluoro-phenyl)-4-oxo-3,4-dihydro-2H-pyridine-1-carboxylic acid (2,3-dimethyl-phenyl)-amide] |
| 7.15 | COC(=O)c1cc(Br)c(NC(=O)N2C=CC(=O)CC2c2ccc(F)cc2)cc1OC (stereo not shown) [Compound 22, 5-Bromo-4-{[2-(4-fluoro-phenyl)-4-oxo-3,4-dihydro-2H-pyridine-1-carbonyl]-amino}-2-methoxy-benzoic acid methyl ester] |
| 5.845 | COc1cc(NC(=O)N2C=CC(=O)C[C@H]2c2ccc(F)cc2)c(Br)cc1C(=O)OC(C)(C)C [Compound 55, 5-Bromo-4-{[(S)-2-(4-fluoro-phenyl)-4-oxo-3,4-dihydro-2H-pyridine-1-carbonyl]-amino}-2-methoxy-benzoic acid tert-butyl ester] |
| 7.93 | COc1cc(C)c(NC(=O)N2C=CC(=O)C[C@H]2c2ccc(F)cc2)cc1OC [Compound 26, (S)-2-(4-Fluoro-phenyl)-4-oxo-3,4-dihydro-2H-pyridine-1-carboxylic acid (4,5-dimethoxy-2-methyl-phenyl)-amide] |
| 5.86 | C[S@+]([O-])c1cc(NC(=O)N2C=CC(=O)C[C@H]2c2ccc(F)cc2)c(Br)cc1Cl [Compound 17, (S)-2-(4-Fluoro-phenyl)-4-oxo-3,4-dihydro-2H-pyridine-1-carboxylic acid [2-bromo-4-chloro-5-((S)-methanesulfinyl)-phenyl]-amide] |
| 6.857 | CC(=O)c1cc(NC(=O)N2C=CC(=O)C[C@H]2c2ccc(F)cc2)c(Br)cc1Cl [Compound 51, (S)-2-(4-Fluoro-phenyl)-4-oxo-3,4-dihydro-2H-pyridine-1-carboxylic acid (5-acetyl-2-bromo-4-chloro-phenyl)-amide] |
| 5.615 | Cc1c2ccc(NC(=O)N3C=CC(=O)C[C@H]3c3ccc(F)cc3)cc2nn1C [Compound 146, (S)-2-(4-Fluoro-phenyl)-4-oxo-3,4-dihydro-2H-pyridine-1-carboxylic acid (2,3-dimethyl-2H-indazol-6-yl)-amide] |
| 8.36 | CCc1cc(OC)c(OC)cc1NC(=O)N1C=CC(=O)C[C@H]1c1ccc(F)cc1 [Compound 87, (S)-2-(4-Fluoro-phenyl)-4-oxo-3,4-dihydro-2H-pyridine-1-carboxylic acid (2-ethyl-4,5-dimethoxy-phenyl)-amide] |
